Laboratory results reported in PubChem BioAssay (NCI).
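Method: 48-hour compound exposure of cells in 96-well plates, five concentrations, linear interpolation of endpoints. TGI is the concentration that stops growth completely.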

How the values were obtained:
Experiment in all cases: NCI tumour cell line growth inhibition, 48 h
[1] = tested on: OVCAR-4 ovarian
[2] = tested on: SK-MEL-2 melanoma
[3] = tested on: M14 melanoma
[4] = tested on: NCI-H23 lung
[5] = tested on: HCT-116 colon
[6] = tested on: BT-549 breast
[7] = tested on: MDA-MB-435
[8] = tested on: SNB-75 CNS
[9] = tested on: OVCAR-5 ovarian
[10] = tested on: NCI-H460 lung

| SMILES | TGI [1] [µM] | TGI [2] [µM] | TGI [3] [µM] | TGI [4] [µM] | TGI [5] [µM] | TGI [6] [µM] | TGI [7] [µM] | TGI [8] [µM] | TGI [9] [µM] | TGI [10] [µM] |
| --- | --- | --- | --- | --- | --- | --- | --- | --- | --- | --- |
| CN1C2CCC1CC(OC(c1ccccc1)c1ccccc1)C2 (centres undefined) | > 100 | 32.1 | 27.9 | 83.3 | 25.1 | 41.2 | 29.8 | 72.8 | 41.2 |  |
| CCOP(=O)(OCC)C(NC(=O)OCC(Cl)(Cl)Cl)n1nnc(C(=O)OC)c1C(=O)OC (centres undefined) | > 100 | > 100 | > 100 | > 100 | > 100 | > 100 | > 100 | > 100 |  | > 100 |
| CCOC(=O)C1(C(=O)OCC)C[C@]23OCCC(=O)[C@H]2[C@H]2C(=O)OC(C)(C)O[C@]23C1 | > 100 | > 100 | > 100 | > 100 | > 100 |  | > 100 | > 100 | > 100 | > 100 |
| NCc1ccc(-c2ccc(-c3ccc(-c4ccc(CN)s4)s3)s2)s1 | > 100 | > 100 | > 100 | > 100 | > 100 |  | > 100 | > 100 | > 100 |  |
| CCOC(=O)CC(=O)NC1CC2CCC1(C)C2(C)C (centres undefined) | > 100 |  | > 100 | > 100 | > 100 | > 100 | > 100 | > 100 | > 100 | > 100 |
| COC(=O)c1ccccc1C1CN=NC12Cc1ccc3ccccc3c1C2=O (centres undefined) | > 100 | > 100 | > 100 |  |  | > 100 | > 100 | > 100 | > 100 | > 100 |
| CCOC(=O)C1C(=O)CC(O)(OCC)C(C(=O)OCC)C1c1ccc(OC)cc1 (centres undefined) | > 100 | > 100 |  | > 100 | > 100 | > 100 | > 100 | > 100 | > 100 | > 100 |
| COc1c(CC=C(C)C)c(O)c(C(CC(C)C)c2c(O)c(C(C)=O)c(O)c3c2OC(C(C)(C)O)C3)c(O)c1C(C)=O (centres undefined) | > 12.5 |  | > 12.5 | > 12.5 | > 12.5 | 10.6 | > 12.5 |  | > 12.5 | > 12.5 |
| Cc1ccc(/C=C2\CN(C)CC3=C2OC(N)=C(C#N)C3c2ccc(C)cc2)cc1 (centres undefined) | 34 | > 63.4 | 43.9 | 62.6 | 27.5 | 40.1 | 34.7 |  | 55.7 | 34.3 |
| S=c1[nH]nc(COc2ccc3c(c2)CCCC3)n1/N=C/c1ccc(Cl)cc1 | 32.8 | 36.2 | 34.5 | 35.9 | 28.6 | 31.3 | 39.4 |  | 32 | 30.2 |
| CC1C(c2ccc(F)cc2)c2cc3c(cc2OC1N1CCCC1)OCO3 (centres undefined) |  | > 100 | > 100 | > 100 | > 100 |  | > 100 | > 100 | > 100 |  |
| Cc1ccc(-c2c(C#N)c(-c3ccc(Cl)cc3)c(C#N)c(=O)n2NS(=O)(=O)c2ccccc2)cc1 | > 100 | > 100 | > 100 |  | > 100 | > 100 | > 100 | > 100 | > 100 | > 100 |
| O=C(Cn1c(=O)ccn(C2OC(CO)C(O)C2F)c1=O)c1ccc(F)cc1 (centres undefined) |  |  |  | > 100 | > 100 |  | > 100 | > 100 | > 100 | > 100 |
